In patent US3946000A, “7-[α-(2-Aminomethyl-1-cyclohexenyl)-acetamido]-3-heterocyclic thiomethyl-3-cephem-4-carboxylic acids” (Bristol-Myers Company, priority 1973, dated 1976):
≈ marks a conversion by molar mass, not a printed value. Read-outs that look alike come from different tables or passages of the source.

Legend:
[1] = Solubility in 0.1 M pH 7.0 phosphate buffer (bioassay and UV-assay); format: physicochemical; conditions: for solubility at 4 h: 0.1 m phosphate buffer, pH 7, aqueous buffer
Description: *Stirred at 25° C. for 4 hours in 0.1 M pH 7.0 phosphate
buffer--filtered through Milipore filter (0.45 μ)--assayed
spectroscopically against its own standard.
The test solution and the standard solution are prepared as described below.
About 10 mg. (1) of a sample is placed in a vial and mixed with 1 ml. of 0.1 M phosphate buffer (pH 7.0). The vial is stoppered, sealed with a metal cap, placed on a rotary shaker and agitated at 160 rpm for 4 hr. at 25° C. The solution is filtered through a Millipore filter (HAWP 01300, mean pore size 0.45 μm). The filtrate is diluted to use for bioassay and UV assay as follows:
About 2 mg. of the same sample is weighed precisely and dissolved in 4 ml. of 1% K2 CO3 solution^(3) (usually within one minute). The solution is diluted exactly to 50 ml. in a flask with 0.1 M pH 7.0 phosphate buffer and used for the preparation of the standard solutions for bioassay and UV-assay as follows:
(1) A 20 mg. or more sample is used when the sample is expected to be more soluble.
(2) 0.1 M pH 7.0 phosphate buffer is used as a diluent in the present test and also as a reference solution in UV-assay.
(3) It was previously confirmed that almost the same result is obtained when the sample is solubilized in DMSO (dimethylsulfoxide) and then diluted similarily with the buffer.
(4) Volume of the solution is measured precisely with an appropriate pipette or flask.
BA: Bioassay, UV: UV-assay Results given for the same compound on different lines were obtained using samples from different lots.

S. aureus BX-1633 = experiment: Minimum curative dose in infected mice, S. aureus BX-1633; format: in vivo; conditions: Staphylococcus aureus, BX1633, sc; subcutaneous, mice infected with lethal dose of S. aureus BX-1633; read-out: CD50 (minimum curative dose for 50% of the mice)
E coli Juhl = experiment: Minimum curative dose in infected mice, E coli Juhl; format: in vivo; conditions: Mus musculus, sc; subcutaneous, mice infected with lethal dose of E coli Juhl; read-out: CD50 (minimum curative dose for 50% of the mice)
Mycobacterium 607 = experiment: M.I.C. by Tube Dilution, Mycobacterium 607; format: cell-based; conditions: overnight at 37° C.
E. coli NIHJ = experiment: M.I.C. by Tube Dilution, E. coli NIHJ; format: cell-based; conditions: Escherichia coli, overnight at 37° C.
Str. pyogenes A9604 = experiment: M.I.C. by Tube Dilution, Str. pyogenes A9604; format: cell-based; conditions: Streptococcus pyogenes; Str. pyogenes A9604 + 5% serum; 50% Nutrient Broth - 45% Antibiotic Assay Broth; overnight at 37° C.
S. aureus BX1633 A9606 = experiment: M.I.C. by Tube Dilution, S. aureus BX1633 A9606; format: cell-based; conditions: Nutrient Broth, overnight at 37° C.; for MIC: Staphylococcus aureus, BX1633A9606, S. aureus BX1633 A9606
Pr. mirabilis A9900 = experiment: M.I.C. by Tube Dilution, Pr. mirabilis A9900; format: cell-based; conditions: Proteus mirabilis, 10^-4 dilution, overnight at 37° C.
K. pneumoniae A9977 = experiment: M.I.C. by Tube Dilution, K. pneumoniae A9977; format: cell-based; conditions: Klebsiella pneumoniae, 10^-4 dilution, overnight at 37° C.
Ser. marcescens A20019 = experiment: M.I.C. by Tube Dilution, Ser. marcescens A20019; format: cell-based; conditions: Serratia marcescens, 10^-4 dilution, overnight at 37° C.
E. coli Juhl A15119 = experiment: M.I.C. by Tube Dilution, E. coli Juhl A15119; format: cell-based; conditions: Escherichia coli, JUHLA15119, 10^-4 dilution, overnight at 37° C.
Sal. enteritidis A9531 = experiment: M.I.C. by Tube Dilution, Sal. enteritidis A9531; format: cell-based; conditions: Salmonella enterica, 10^-4 dilution, overnight at 37° C.
K. pneumoniae A15130 = experiment: M.I.C. by Tube Dilution, K. pneumoniae A15130; format: cell-based; conditions: Klebsiella pneumoniae, 10^-4 dilution, overnight at 37° C.
E. coli ATCC 8739 = experiment: M.I.C. by Tube Dilution, E. coli ATCC 8739; format: cell-based; conditions: Escherichia coli, ATCC8739, overnight at 37° C.
S. aureus Russel = experiment: M.I.C. by Tube Dilution, S. aureus Russel; format: cell-based; conditions: Nutrient Broth, overnight at 37° C.; for MIC: Staphylococcus aureus
Ps. aeruginosa A9843 = experiment: M.I.C. by Tube Dilution, Ps. aeruginosa A9843; format: cell-based; conditions: Pseudomonas aeruginosa, 10^-4 dilution, overnight at 37° C.
Pr. morganii A15153 = experiment: M.I.C. by Tube Dilution, Pr. morganii A15153; format: cell-based; conditions: Morganella morganii, 10^-4 dilution, overnight at 37° C.
D. pneumoniae A9585 = experiment: M.I.C. by Tube Dilution, D. pneumoniae A9585; format: cell-based; conditions: Streptococcus pneumoniae, A9585, D. pneumoniae A9585 + 5% serum; 50% Nutrient Broth - 45% Antibiotic Assay Broth; overnight at 37° C.
S. aureus Smith A9537 = experiment: M.I.C. by Tube Dilution, S. aureus Smith A9537; format: cell-based; conditions: Staphylococcus aureus, 10^-4 dilution, overnight at 37° C.
[2] = 0.1 M phosphate buffer (pH 7.0), 4 hr. at 25° C., UV-assay, read-out: Solubility, UV (UV-assay)
[3] = 0.1 M phosphate buffer (pH 7.0), 4 hr. at 25° C., bioassay, read-out: Solubility, BA (bioassay)
[4] = stirred at 25° C. for 4 hours in 0.1 M pH 7.0 phosphate buffer, assayed spectroscopically against its own standard, read-out: Solubility
[5] = UV-assay, read-out: Solubility (UV)
[6] = bioassay, read-out: Solubility (BA)

NCc1ccccc1CC(=O)NC1C(=O)N2C(C(=O)O)=C(CSc3ccc4nnc(O)n4n3)CSC12 (stereo not drawn) [BB-S207, reference compound]
Solubility, UV (UV-assay) ([1]; 0.1 M phosphate buffer (pH 7.0), 4 hr. at 25° C., UV-assay, 240 min): 3600 µg/mL (≈ 6.82 mM)
solubility at 4 h [1, 2]: 3900 µg/mL (≈ 7.39 mM)
solubility at 4 h [1, 3]: 4200 µg/mL (≈ 7.96 mM)
solubility at 4 h [1, 4]: 3600 µg/mL (≈ 6.82 mM)

NCC1=C(CC(=O)NC2C(=O)N3C(C(=O)O)=C(CSc4ccc5nnnn5n4)CSC23)CCCC1 (stereo not drawn) [Example 2, 7-[α-(2-aminomethyl-1-cyclohexenyl)acetamido]-3-(pyradazino[2,3-d]tetrazol-6-ylthiomethyl)-3-cephem-4-carboxylic acid]
solubility at 4 h [1, 2]: 3000 µg/mL (≈ 5.81 mM)
solubility at 4 h [1, 3]: 3000 µg/mL (≈ 5.81 mM)
solubility at 4 h [1, 4]: 3000 µg/mL (≈ 5.81 mM)

Cn1nnnc1SCC1=C(C(=O)O)N2C(=O)C(NC(=O)Cc3ccccc3CN)C2SC1 (stereo not drawn) [MR-S94, reference compound]
solubility at 4 h [1, 2]: 1900 µg/mL (≈ 4 mM)
solubility at 4 h [1, 3]: 2000 µg/mL (≈ 4.21 mM)
solubility at 4 h [1, 4]: 1900 µg/mL (≈ 4 mM)
ED50 (S. aureus BX-1633): 3.4 mg/kg
ED50 (E coli Juhl): 4.4 mg/kg

NCc1ccccc1CC(=O)NC1C(=O)N2C(C(=O)O)=C(CSc3ccc(O)nn3)CSC12 (stereo not drawn) [BB-S150, reference compound]
solubility at 4 h [1, 2]: 4400 µg/mL (≈ 9.02 mM)
solubility at 4 h [1, 3]: 4400 µg/mL (≈ 9.02 mM)
solubility at 4 h [1, 4]: 4400 µg/mL (≈ 9.02 mM)

Cc1nnc(SCC2=C(C(=O)O)N3C(=O)C(NC(=O)CC4=C(CN)CCCC4)[C@H]3SC2)s1 (stereo partly drawn) [Example 4, 7-[α-(2-aminomethyl-1-cyclohexenyl)acetamido]-3-(5-methyl-1,3,4-thiadiazol-2-ylthiomethyl)-3-cephem-4-carboxylic acid]
solubility at 4 h [1, 2]: 4600 µg/mL (≈ 9.28 mM)
solubility at 4 h [1, 3]: 4300 µg/mL (≈ 8.68 mM)
solubility at 4 h [1, 4]: 4300 to 4600 µg/mL (≈ 8.68 to 9.28 mM)

CC1=C(C(=O)O)N2C(=O)C(NC(=O)CC3=C(CN)CCCC3)C2SC1 (stereo not drawn) [Example 17, 7-[α-(2-Aminomethyl-1-cyclohexenyl)acetamido]desacetoxycephalosporanic acid]
solubility at 4 h [1, 5]: 3300 µg/mL (≈ 9.03 mM)
solubility at 4 h [1, 6]: 4100 µg/mL (≈ 11.2 mM)
MIC (Mycobacterium 607): > 100 µg/mL
MIC (E. coli NIHJ): > 100 µg/mL
MIC (Str. pyogenes A9604): 1.25 to 2.5 µg/mL
M.I.C. (S. aureus BX1633 A9606; S. aureus BX1633 A9606, listed as 6x): 25 Mcg./ml.
MIC (S. aureus BX1633 A9606): > 12.5 µg/mL
MIC (Pr. mirabilis A9900): > 100 µg/mL
MIC (K. pneumoniae A9977): > 100 µg/mL
MIC (Ser. marcescens A20019): > 100 µg/mL
MIC (E. coli Juhl A15119): > 100 µg/mL
MIC (Sal. enteritidis A9531): > 100 µg/mL
MIC (K. pneumoniae A15130): > 100 µg/mL
MIC (E. coli ATCC 8739): > 100 µg/mL
M.I.C. (S. aureus Russel; listed as 6x): 12.5 Mcg./ml.
MIC (S. aureus Russel): > 12.5 µg/mL
MIC (Ps. aeruginosa A9843): > 100 µg/mL
MIC (Pr. morganii A15153): > 100 µg/mL

CC(=O)OCC1=C(C(=O)O)N2C(=O)C(NC(=O)CC3=C(CN)CCCC3)C2SC1 (stereo not drawn) [Example 16, 7-[α-(2-Aminomethy-1-cyclohexenyl)acetamido]cephalosporanic acid]
solubility at 4 h [1, 5]: 5300 µg/mL (≈ 12.5 mM)
solubility at 4 h [1, 6]: 5400 µg/mL (≈ 12.8 mM)
MIC (Mycobacterium 607): > 100 µg/mL
MIC (E. coli NIHJ): 25 to 50 µg/mL (≈ 0.059 to 0.118 mM)
MIC (S. aureus BX1633 A9606): 3.1 µg/mL (≈ 0.00732 mM)
MIC (Pr. mirabilis A9900): 50 µg/mL (≈ 0.118 mM)
MIC (K. pneumoniae A9977): 12.5 to 25 µg/mL (≈ 0.0295 to 0.059 mM)
MIC (Ser. marcescens A20019): > 100 µg/mL
MIC (D. pneumoniae A9585): 0.16 to 0.31 µg/mL
MIC (E. coli Juhl A15119): 25 µg/mL (≈ 0.059 mM)
MIC (Sal. enteritidis A9531): 12.5 µg/mL (≈ 0.0295 mM)
MIC (K. pneumoniae A15130): 12.5 to 50 µg/mL (≈ 0.0295 to 0.118 mM)
MIC (E. coli ATCC 8739): 25 µg/mL (≈ 0.059 mM)
MIC (S. aureus Russel): 0.8 to 1.6 µg/mL (≈ 0.00189 to 0.00378 mM)
MIC (S. aureus Smith A9537; SMITHA9537, S. aureus Smith A9537 + 50% serum): 3.1 µg/mL
MIC (S. aureus Smith A9537; SMITHA9537, S. aureus Smith A9537, Nutrient Broth): 0.8 µg/mL (≈ 0.00189 mM)
MIC (Ps. aeruginosa A9843): > 100 µg/mL
MIC (Pr. morganii A15153): > 100 µg/mL
